One may read the EC50 as the concentration at which the effect is half-maximal.

No end group written: not given here.

The subject of test [1] is Hdh-NPFR. In words: Western blot of ERK1/2 phosphorylation in Hdh-NPFR-expressing HEK293 cells. Format: cell-based, Haliotis discus hannai. Conditions: inhibitor 10^–5 M pre-incubated 1 h, then Hdh-NPF (10^–8, 10^–6 M) 5 min; Fig. 3f. On the procedure: HEK293 cells were seeded into 6-well plates (0.3 × 10^6 cells/well) and transfected with 3 μg of pcDNA3-HA-Hdh-NPFR or pcDNA3 as described for the reporter assays. At 36 h post-transfection, the transfected cells were treated with Hdh-NPF (10^–9–10^–7 M), TPA (10^–7 M), or the same volume of peptide-free medium as a vehicle for 10 min. After washing twice with PBS, the cells were lysed with RIPA buffer [150 mM NaCl, 1% Triton X-100, 0.5% sodium deoxycholate, 0.1% sodium dodecyl sulfate (SDS), 50 mM Tris–Cl, pH 8.0] including protease inhibitor cocktail and PhosSTOP (Roche, Basel, Switzerland) according to the manufacturer’s recommendation. To examine signaling pathways, Hdh-NPFR-transfected cells were pre-incubated with serum-free DMEM for 6 h at 37 °C and exposed to a PKA inhibitor (H89, 10^–5 M; Sigma-Aldrich) or PKC inhibitor (Gӧ6983, 10^–5 M; Sigma-Aldrich) for a further 60 min. After replacing the medium with fresh serum-free DMEM, the cells were exposed to Hdh-NPF peptide (10^–8, 10^–6 M) for 5 min at 37 °C. The cell lysates were separated by 10% SDS–polyacrylamide gel electrophoresis and subsequently transferred to nitrocellulose membranes (Pall, Ann Arbor, MI, USA). […] The reactive bands were monitored using C-Digit 3600 Bolt Scanner (LI-COR, Lincoln, NE, USA).
(In western blotting, separated proteins are transferred to a membrane and probed.)

The test system of test [2] is Hdh-NPFR. Nature of the test: Ca2+ mobilization (aequorin luminescence) assay in Hdh-NPFR-transfected CHO-K1 cells. Format: cell-based, Haliotis discus hannai. To be noted: Fig. 3g, Fig. S7b. The protocol: CHO-K1 cells were maintained in DMEM-F12 Nutrient Mixture Ham supplemented with 10% FBS (Welgene) at 37 °C in 5% CO2. Cells grown in a monolayer to 60% confluency in 100 mm dishes (1.5 × 10^6 cells) were transiently transfected with plasmids using FuGENE6 transfection reagent (Promega), according to the manufacturer’s recommendations. In brief, the transfection medium was prepared by combining 600 μl of DMEM-F12 with 2 μg of pcDNA3-HA-Hdh-NPFR plasmid together with 2 μg of a Ca^2+ reporter aequorin plasmid with or without the promiscuous Gα15 expression plasmid (kind gifts from Dr. Young-Joon Kim, Gwangju Institute of Science and Technology, Gwangju, Korea) with 18 μl of FuGENE6 in a 5 ml polystyrene tube and incubated for 25 min at room temperature. The transfection mixture was added to CHO-K1 cells in 10 ml of fresh FBS-free medium and the cells were incubated at 37 °C in 5% CO2 overnight. On the day of the assay, the cells were detached from the culture dish by incubating with 3 ml of 5 mM EDTA in phosphate-buffered saline (PBS, pH 7.2; Thermo Fisher Scientific, Waltham, MA, USA) for 5 min. The cells were washed in 10 ml of phenol red-free DMEM/F-12 with 0.1% bovine serum albumin (BSA) and 1% P/S (DMEM-prf), and collected by brief centrifugation. Probenecid (1.25 mM final concentration, Invitrogen) and coelenterazine (5 μM, Gold Biotech., St. Louis, MO, USA) were added to resuspended CHO-K1 cells in 5 ml of DMEM-prf medium and the cells were gently agitated for 2.5 h using a magnetic stirrer at room temperature shielded from light. The cell suspension was diluted four times with DMEM-prf and incubated for a further 30 min. Just before the Ca^2+ mobilization assay, peptide solutions were prepared in DMEM-prf and 50 μl aliquots were dispensed into 3 or 4 wells/peptide on 96-well microplates. DMEM-prf was used as a negative control. While stirring gently, 50 μl of the cell suspension was injected into a luminescence microplate reader (Berthold Tech.) using an automated injector unit. Luminescence was recorded for 20 s and for a further 10 s after injection of DMEM-prf including 0.2% Triton X-100 to measure the total Ca^2+ response. The average luminescence from multiple replicate wells for a single concentration was calculated and normalized to the largest receptor response after subtraction of background values obtained from negative controls. Dose–response curves and EC50 values were obtained using Sigma Plot v.13 (Systat Software, Inc., San Jose, CA, USA).
For orientation: Calcium assays in cells follow changes in intracellular calcium, usually with a dye or a luminescent sensor.

Test [3] concerns pcDNA3-transfected HEK293 cells. In words: CRE-Luc luciferase reporter assay in pcDNA3-transfected HEK293 cells. Conditions: pcDNA3-transfected HEK293 cells (no receptor); Fig. 3d. Format: cell-based, human. On the procedure: HEK293 cells were cultured in Dulbecco’s modified Eagle medium (DMEM; Gibco, Loughborough, UK) containing 1% penicillin/streptomycin (P/S; Invitrogen) and 10% fetal bovine serum (FBS; Hyclone, GE Healthcare, Chicago, IL, USA). Sixteen hours before transfection, cultured HEK293 cells were seeded into 24-well plates (5 × 10^4 cells/well). The cells were transfected with a luciferase reporter plasmid of CRE-Luc[68] or SRE-Luc[69] using a polyethyleneimine transfection reagent (Sigma-Aldrich, St. Louis, MO, USA), along with pcDNA3-HA plasmids containing Hdh-NPFR-related receptors, human NPYR1 and NPYR2 (kindly provided by Dr. Annette G. Beck-Sickinger, Leipzig University, Germany), and a pRSV-β-galactosidase expression plasmid as an internal control (100 ng of each plasmid/well) as previously reported. After 3 h of transfection, the culture medium was replaced by new DMEM with 1% P/S and 10% FBS, and the HEK293 cells were further cultured for 30 h and then maintained in DMEM without FBS for 16 h. […] The cells were lysed with a luciferase cell culture lysis buffer (Promega, Madison, WI, USA) and luciferase activities were analyzed using a microplate-luminometer (Berthold Tech., Bad Wildbad, Germany) and normalized by the β-galactosidase values detected by an absorbance microplate reader (Tecan, Mannedorf, Switzerland) at 405 nm.

Regarding `COc1ccc2c(c1)c(C1=C(c3c[nH]c4ccccc34)C(=O)NC1=O)cn2CCCN(C)C` [Gӧ6983], in the test with Hdh-NPFR [1], the “Effect of inhibitor on Hdh-NPFR-mediated activation of ERK1/2” value is reported as “abolished”.

For the molecule “QDAMLAPPDRPSEFRSPD-NH2 [Hdh-NPF-N18, truncated Hdh-NPF peptide]”, the “Ca2+ mobilization response” value in the test with Hdh-NPFR [2] was “could not induce”.

For the molecule “QDAMLAPPDRPSEFRSPDQLRQYLKALNEYYAIVGRPRF-NH2 [Hdh-NPF]”, in test [3], the response was half-maximal at 596 nM (EC50).

“QLRQYLKALNEYYAIVGRPRF-NH2 [Hdh-NPF-C21, truncated Hdh-NPF peptide]”: in the test with Hdh-NPFR [2], the “Ca2+ mobilization response” value is reported as “could not induce”.

“YAIVGRPRF-NH2 [Hdh-NPF-C9, truncated Hdh-NPF peptide]”: in the test on Hdh-NPFR [2], the “Ca2+ mobilization response” value was “could not induce”.

As for “YPSKPDNPGEDAPAEQLRQYLKALNEYYAIVGRPRF-NH2 [NPY-F, chimeric mixed peptide for Hdh-NPF and human NPY]”, the “Ca2+ mobilization response” value with Hdh-NPFR [2] is “could not activate”.
